The text below walks through data of patent publication US8461120B2, “Macrocyclic compounds pounds and methods of use thereof” (Synovo GmbH, priority 2004, dated 2013).

Type in all cases: cell-based
The test system of assay [1] is NO. In words: Suppression of pro-inflammatory responses in isolated cells: NO. The following applies: for Potency in NO suppression vs. Dexamethasone: relative to Dexamethasone; for activity at 8 µM: read-out: NO (% control) at 8 μM.
Assay [2] concerns IFNg. As to the kind of experiment: Suppression of pro-inflammatory responses in isolated cells: IFNg. The following applies: for activity at 8 µM: read-out: IFNg (% control) at 8 μM.
In assay [3] the test system is KC. In words: LPS-stimulated mouse whole blood, production of the chemotactic cytokine KC (bioplex). The following applies: Neutrophil, 1.5 h; fresh mouse whole blood stimulated by LPS, incubated 90 minutes; read-out: EC50 of modulation of the neutrophil migration factor KC. As to the method: FIG. 2. is a graph showing the response of murine blood cells to varying concentrations of a compound of the invention (see Example 31) based on the production of the chemotactic cytokine “KC”. Fresh mouse whole blood was stimulated by LPS and incubated for 90 minutes. KC was quantified by bioplex.

pEC50: −log10 of the molar value.

With `CC[C@H]1OC(=O)[C@H](C)[C@@H](O[C@H]2C[C@@](C)(OC)[C@@H](O)[C@H](C)O2)[C@H](C)[C@@H](O[C@@H]2O[C@H](C)CC(N(C)CC(O)CNc3ncc(C)s3)[C@H]2O)[C@](C)(O)C[C@@H](C)CN(C)[C@H](C)[C@@H](O)[C@]1(C)O` (stereo partly shown) [Example 41], the “Potency in NO suppression vs. Dexamethasone” value in assay [1] is given as 0.5. With `CC[C@H]1OC(=O)[C@H](C)[C@@H](O[C@H]2C[C@@](C)(OC)[C@@H](O)[C@H](C)O2)[C@H](C)[C@@H](O[C@@H]2O[C@H](C)CC(N(C)CC(O)COc3ccc(OC)cc3)[C@H]2O)[C@](C)(O)C[C@@H](C)CN(C)[C@H](C)[C@@H](O)[C@]1(C)O` (stereo partly shown) [Example 60], the activity at 8 µM in assay [2] stood at 5.7%; in assay [1] it was 33.7%. The corresponding values for `C[C@@H]1C[C@H]2[C@@H]3CCC4=CC(=O)C=C[C@]4(C)[C@@]3(F)[C@@H](O)C[C@]2(C)[C@@]1(O)C(=O)CO` [Dexamethasone, reference compound] are 4.3% and 3.4%.

On to `CC[C@H]1OC(=O)[C@H](C)[C@@H](O[C@H]2C[C@@](C)(OC)[C@@H](O)[C@H](C)O2)[C@H](C)[C@@H](O[C@@H]2O[C@H](C)CC(N(C)CC(O)COc3cccc(O)c3)[C@H]2O)[C@](C)(O)C[C@@H](C)CN(C)[C@H](C)[C@@H](O)[C@]1(C)O` (stereo partly shown) [Example 59], for which the activity at 8 µM was 96.9% in assay [2] and 99.2% in assay [1]. In the same order, the values of `CC[C@H]1OC(=O)[C@H](C)[C@@H](O[C@H]2C[C@@](C)(OC)[C@@H](O)[C@H](C)O2)[C@H](C)[C@@H](O[C@@H]2O[C@H](C)CC(N(C)CC(O)COC(=O)c3nccc4ccccc34)[C@H]2O)[C@](C)(O)C[C@@H](C)CN(C)[C@H](C)[C@@H](O)[C@]1(C)O` (stereo partly shown) [Example 65] are 30.9% and 77.6%. As to `CC[C@H]1OC(=O)[C@H](C)[C@@H](O[C@H]2C[C@@](C)(OC)[C@@H](O)[C@H](C)O2)[C@H](C)[C@@H](O[C@@H]2O[C@H](C)CC(N(C)CC(O)CN3CCN(C=O)CC3)[C@H]2O)[C@](C)(O)C[C@@H](C)CN(C)[C@H](C)[C@@H](O)[C@]1(C)O` (stereo partly shown) [Example 56], the “Potency in NO suppression vs. Dexamethasone” value in assay [1] was determined as 0.6. Take `CC[C@H]1OC(=O)[C@H](C)[C@@H](OC2C[C@@](C)(OC)[C@@H](O)[C@H](C)O2)C[C@@H](OC2O[C@H](C)C[C@H](N(C)CC(O)CNc3ncc(C)s3)[C@H]2O)[C@](C)(O)C[C@@H](C)C(=O)[C@H](C)[C@@H](O)[C@]1(C)O` (stereo partly shown) [Example 68]: the activity at 8 µM in assay [2] is 4.3%; in assay [1] it was 2.9%. In the case of `CC[C@H]1OC(=O)[C@H](C)[C@@H](O[C@H]2C[C@@](C)(OC)[C@@H](O)[C@H](C)O2)[C@H](C)[C@@H](O[C@@H]2O[C@H](C)CC(N(C)CC(O)CN3CCC(O)CC3)[C@H]2O)[C@](C)(O)C[C@@H](C)CN(C)[C@H](C)[C@@H](O)[C@]1(C)O` (stereo partly shown) [Example 47], in assay [1], the “Potency in NO suppression vs. Dexamethasone” value came to 0.5.

Take `CC[C@H]1OC(=O)[C@H](C)[C@@H](O[C@H]2C[C@@](C)(OC)[C@@H](O)[C@H](C)O2)[C@H](C)[C@@H](O[C@@H]2O[C@H](C)CC(N(C)CC(O)COc3ccc(C(=O)OC)cc3)[C@H]2O)[C@](C)(O)C[C@@H](C)CN(C)[C@H](C)[C@@H](O)[C@]1(C)O` (stereo partly shown) [Example 62]: the figures for the activity at 8 µM in assay [2] and in assay [1] were 5.3% and 63.4%, respectively. Take `CC[C@H]1OC(=O)[C@H](C)[C@@H](O[C@H]2C[C@@](C)(OC)[C@@H](O)[C@H](C)O2)[C@H](C)[C@@H](O[C@@H]2O[C@H](C)CC(N(C)CC(O)CNCC(OC)OC)[C@H]2O)[C@](C)(O)C[C@@H](C)CN(C)[C@H](C)[C@@H](O)[C@]1(C)O` (stereo partly shown) [Example 35]: the “Potency in NO suppression vs. Dexamethasone” value in assay [1] is on record as 0.5. The same measure, in the same setting: the figure for `CC[C@H]1OC(=O)[C@H](C)[C@@H](O[C@H]2C[C@@](C)(OC)[C@@H](O)[C@H](C)O2)[C@H](C)[C@@H](O[C@@H]2O[C@H](C)CC(N(C)CC(O)CNCCCCN)[C@H]2O)[C@](C)(O)C[C@@H](C)CN(C)[C@H](C)[C@@H](O)[C@]1(C)O` (stereo partly shown) [Example 29] is 0.6. Turning to descladinosyltetraacetal azithromycin, the “Potency in NO suppression vs. Dexamethasone” value in assay [1] was 0.6.

As for `CC[C@H]1OC(=O)[C@H](C)[C@@H](O[C@H]2C[C@@](C)(OC)[C@@H](O)[C@H](C)O2)[C@H](C)[C@@H](O[C@@H]2O[C@H](C)CC(N(C)CC(O)COc3ccc(B(O)O)cc3)[C@H]2O)[C@](C)(O)C[C@@H](C)CN(C)[C@H](C)[C@@H](O)[C@]1(C)O` (stereo partly shown) [Example 61], the activity at 8 µM came to 15.6% in assay [2] and 74.2% in assay [1]. As to `CC[C@H]1OC(=O)[C@H](C)C2(O)O[C@@](C)(C[C@@H](C)CN(C)[C@H](C)[C@@H](O)[C@]1(C)O)[C@H](O[C@@H]1O[C@H](C)CC(N(C)CC(O)COC(=O)c3cnc4ccccc4c3)C1O)[C@H]2C` (stereo partly shown) [Example 75], the activity at 8 µM was determined as 88.8% in assay [2] and 96.8% in assay [1]. In the same order, the values of `CCCCC(CC)CNCC(O)CN(C)C1C[C@@H](C)O[C@@H](O[C@@H]2[C@@H](C)[C@H](O[C@H]3C[C@@](C)(OC)[C@@H](O)[C@H](C)O3)[C@@H](C)C(=O)O[C@H](CC)[C@@](C)(O)[C@H](O)[C@@H](C)N(C)C[C@H](C)C[C@@]2(C)O)[C@@H]1O` (stereo partly shown) [Example 33] are 3.8% and 3.2%. For `CC[C@H]1OC(=O)[C@H](C)[C@@H](OC2CC(C)(OC)C(O)C(C)O2)[C@H](C)[C@@H](OC2OC(C)CC(NC)C2O)C(C)(O)C[C@@H](C)C(=O)[C@H](C)[C@@H](O)C1(C)O` (stereo partly shown) [desmethyl erythromycin, reference compound], the “IFNg (% control) at 8 μM” value in assay [2] was 6.3 % control. Besides, the “NO (% control) at 8 μM” value in assay [1] is 37.1 % control. As to `CCCCCNCC(O)CN(C)C1C[C@@H](C)O[C@@H](O[C@@H]2[C@@H](C)[C@H](O[C@H]3C[C@@](C)(OC)[C@@H](O)[C@H](C)O3)[C@@H](C)C(=O)O[C@H](CC)[C@@](C)(O)[C@H](O)[C@@H](C)N(C)C[C@H](C)C[C@@]2(C)O)[C@@H]1O` (stereo partly shown) [Example 32], the activity at 8 µM in assay [2] turned out to be 3.7%; in assay [1], 6.8%. As to `CCCCCCCCNCC(O)CN(C)C1C[C@@H](C)O[C@@H](O[C@@H]2[C@@H](C)[C@H](O[C@H]3C[C@@](C)(OC)[C@@H](O)[C@H](C)O3)[C@@H](C)C(=O)O[C@H](CC)[C@@](C)(O)[C@H](O)[C@@H](C)N(C)C[C@H](C)C[C@@]2(C)O)[C@@H]1O` (stereo partly shown) [Example 31], in assay [3], the pEC50 is approximately 7.00. The activity at 8 µM worked out at 4.4% in assay [2] and 4.7% in assay [1]. For the molecule `CCC1OC(=O)C(C)C(OC2CC(C)(OC)C(O)C(C)O2)C(C)C(OC2OC(C)CC(N(C)CC3CO3)C2O)C(C)(O)CC(C)C(=O)C(C)C(O)C1(C)O` (stereo not shown) [Example 67, 3′-N-demethyl-3′-N-(oxiranylmethyl)erythromycin], in assay [2], the “IFNg (% control) at 8 μM” value was found to be 6.0 % control. Moreover, the “NO (% control) at 8 μM” value in assay [1] stood at 70.0 % control. With `CC[C@H]1OC(=O)[C@H](C)[C@@H](O[C@H]2C[C@@](C)(OC)[C@@H](O)[C@H](C)O2)[C@H](C)[C@@H](O[C@@H]2O[C@H](C)CC(N(C)CC(O)COC(=O)CNC(=O)OC(C)(C)C)[C@H]2O)[C@](C)(O)C[C@@H](C)CN(C)[C@H](C)[C@@H](O)[C@]1(C)O` (stereo partly shown) [Example 63], the activity at 8 µM is 4.4% in assay [2] and 3.9% in assay [1]. The corresponding values for `CCCN(CCO)CC(O)CN(C)C1C[C@@H](C)O[C@@H](O[C@@H]2[C@@H](C)[C@H](O[C@H]3C[C@@](C)(OC)[C@@H](O)[C@H](C)O3)[C@@H](C)C(=O)O[C@H](CC)[C@@](C)(O)[C@H](O)[C@@H](C)N(C)C[C@H](C)C[C@@]2(C)O)[C@@H]1O` (stereo partly shown) [Example 50] are 4% and 3.9%. Take `CCCCN(CCCC)CCCNCC(O)CN(C)C1C[C@@H](C)O[C@@H](O[C@@H]2[C@@H](C)[C@H](O[C@H]3C[C@@](C)(OC)[C@@H](O)[C@H](C)O3)[C@@H](C)C(=O)O[C@H](CC)[C@@](C)(O)[C@H](O)[C@@H](C)N(C)C[C@H](C)C[C@@]2(C)O)[C@@H]1O` (stereo partly shown) [Example 49]: the activity at 8 µM worked out at 4.3% in assay [2] and 48.2% in assay [1]. For the molecule `CC[C@H]1OC(=O)[C@H](C)[C@@H](O[C@H]2C[C@@](C)(OC)[C@@H](O)[C@H](C)O2)[C@H](C)[C@@H](O[C@@H]2O[C@H](C)CC(N(C)CC(O)CNc3cc(C)ccn3)[C@H]2O)[C@](C)(O)C[C@@H](C)CN(C)[C@H](C)[C@@H](O)[C@]1(C)O` (stereo partly shown) [Example 42], the “Potency in NO suppression vs. Dexamethasone” value in assay [1] was found to be 0.8.
